Results: patent US20150119429A1, “Iron Chelators as HIV-1 Inhibitors” (Howard University, priority 2012, published 2015)

Experiments:
heme oxygenase-1 gene = assay: Induction of heme oxygenase-1 expression in THP-1 cells (real-time PCR); type: cell-based, human; settings: about 24 hours of treatment, DDCt, hemin at 100 μM, FIG. 6
CEM cells = assay: Toxicity of iron chelators in CEM cells (calcein-AM fluorescence); type: cell-based, human; settings: about 24 h at about 37° C., micromolar concentrations, FIG. 3
[1] = tested on: VSVG-pseudotyped pNL4-3.Luc.R-E-(HIV-1 Luc) virus; assay: One round of HIV-1-Luc replication in CEM cells (luciferase activity); type: cell-based; settings: for inhibition of HIV-1 replication compared with Bp4eT: CEM cells infected 18 h, treated 24 h at 37° C., FIG. 8; for IC50: Human immunodeficiency virus 1, CCRF-CEM, CEM cells infected about 18 h, treated about 24 h at about 37° C., FIG. 2, read-out: IC50 for inhibition of HIV-1 replication
[2] = tested on: cellular iron in THP-1 cells; assay: Cellular iron chelation in THP-1 cells (calcein fluorescence); type: cell-based, human; settings: THP-1 cells treated with FeS, loaded with calcein-AM, versus control SIH compound, FIG. 4
Procedure: To assess iron chelating efficiency, human acute monocytic leukemia cell line (THP-1) cells were untreated (control) or treated with FeS for about 1 hr at about 37° C., and then loaded with iron sensor, calcein-AM for about 10 min at about 37° C. After washing with phosphate buffer solution (PBS), cells were treated with various iron chelators. In Figure. 4, calcein fluorescence was measured in a real-time PCR machine as a function of time. Fractional fluorescence (F-Fi)/Fi is proportional to the amount of chelatable iron.

IkB gene = assay: Induction of IkB gene expression in 293T cells (real-time PCR); type: cell-based, human; settings: about 24 hours of treatment, DDCt vs DMSO, FIG. 5

Row | Compound | expression of heme oxygenase-1 (HO-1) (heme oxygenase-1 gene) | toxicity (CEM cells) | inhibition of HIV-1 replication compared with Bp4eT [1] | IC50 [1] [µM] | iron chelating efficiency (fractional calcein fluorescence) [2] | expression of IkB (IkB gene)
1 | hemin [reference compound] | induced expression of HO-1 | – | – | – | – | –
2 | O=C(Cc1ccccc1)c1ccccn1 [PPY, 2-phenyl-1-pyridin-2yl-ethanone, reference compound] | – | Neither PPY, nor representative PpYeT and PpYaT compounds show significant toxicity | – | – | – | –
3 | CCNC(=S)N/N=C(\Cc1ccccc1)c1ccccn1 [PpYeT] | induce expression of heme oxygenase-1 (HO-1) | Neither PPY, nor representative PpYeT and PpYaT compounds show significant toxicity | inhibit HIV-1 replication comparable to the effect of previously studied Bp4eT chelator | 0.014 | better than the control SIH compound | induce expression of IkB
4 | C=CCNC(=S)N/N=C(\Cc1ccccc1)c1ccccn1 [PpYaT] | induce expression of heme oxygenase-1 (HO-1) | Neither PPY, nor representative PpYeT and PpYaT compounds show significant toxicity | inhibit HIV-1 replication comparable to the effect of previously studied Bp4eT chelator | 0.014 | better than the control SIH compound | induce expression of IkB
5 | CCNC(=S)N/N=C(\c1ccccc1)c1ccccn1 [Bp4-eT, reference compound] | – | – | – | 0.0075 | – | –
